# Test results published in US12564584B2, “Amorphous cabozantinib particles and uses thereof” (Flex Pharma, LLC, priority 2020, dated 2026).
# Tests used:
# [1] = cited from earlier work
# [2] = Assay by HPLC (corrected for water content); type: physicochemical
# Method: (§1) Total related substances was determined by HPLC using a Waters Acquity H-Class UPLC instrument utilizing a Waters Acquity BEH C18, 2.1×50 mm, 1.7 μm column. Sample solutions of each ASD were prepared by accurately weighing ASD powder into a volumetric flask, and diluted in 1:1:1 methanol:ethanol:water. The final concentration of the analyte (cabozantinib) in the sample was approximately 0.2 mg/ml.
# (§2) Assay values and total related substances were determined for the ASDs after preparation (t=0) and at the designated stability timepoints using an appropriate HPLC method (as described in Example 1). The reported assay values have been corrected for water content (determined by Karl Fischer coulometric titration method).
# [3] = Water content by Karl Fischer coulometric titration; type: physicochemical; conditions: after preparation
# Method: Water content was determined by Karl Fischer coulometric titration method, using a Mettler Toledo C30S Karl Fischer with Stromboli Oven Sampler. Approximately 40-50 mg of ASD powder was weighed into a glass Stromboli sample vial and the vial was immediately sealed with a foil coated vial cover, and a rubber vial cap cover was placed on top of the sample vial. The vial was then placed onto instrument and analysis was conducted using nitrogen carrier gas. Instrument details and measurement conditions are specified in Table 4.
# [4] = Total related substances by HPLC; type: physicochemical
# Method: as §1
# Individual related substances were calculated as peak area percent. Total related substances is calculated as the sum of all detected individual related substances.
# as §2
# [5] = test system: MET, VEGFR-1, -2 and -3, AXL, RET, ROS1, TYRO3, MER, KIT, TRKB, FLT-3, and TIE-2; conditions: FLT-3, TIE-2; cited from earlier work
# [6] = cited from earlier work; remark: listed apart in the source
Structure (SMILES),protein bound in human plasma [1] [%],"Assay ([2]; 40° C./protected, 1 month) [%]","Assay ([2]; 40° C./protected, 2 months) [%]","Assay ([2]; 40° C./protected, 3 months) [%]",Assay ([2]; t = 0) [%],Water Content (% water) [3] [% water],"Total Related Substances ([4]; 40° C./protected, 1 month) [%]","Total Related Substances ([4]; 40° C./protected, 2 months) [%]","Total Related Substances ([4]; 40° C./protected, 3 months) [%]",Total Related Substances (% Area) ([4]; after preparation),Total Related Substances ([4]; t = 0) [%],inhibition of tyrosine kinase activity [5],solubility in aqueous media [6]
"COc1cc2nccc(Oc3ccc(NC(=O)C4(C(=O)Nc5ccc(F)cc5)CC4)cc3)c2cc1OC.O=C(O)C[C@H](O)C(=O)O [Cabozantinib (free base), N-(4-(6,7-dimethoxyquinolin-4-yloxy)phenyl)-N′-(4-fluorophenyl)cyclopropane-1,1-dicarboxamide, (2S)-hydroxybutanedioate]",≥ 99.7,99.9,99.6,99.0,99.2,0.75,0.52,0.44,0.38,0.44,0.44,inhibits,–
COc1cc2nccc(Oc3ccc(NC(=O)C4(C(=O)Nc5ccc(F)cc5)CC4)cc3)c2cc1OC.O=C(O)C[C@H](O)C(=O)O [Cabozantinib (S)-malate salt],–,–,–,–,–,–,–,–,–,–,–,–,practically insoluble
